Laboratory results taken from patent US20220370416A1, “COMPOUNDS AND METHODS FOR TARGETED DEGRADATION OF KRAS” (Arvinas Operations, Inc., priority 2020, published 2022).

Tests used:
Format in all cases: cell-based
KRAS^G12C [1] = target: T1, KRAS^G12C (Homo sapiens, UniProt P01116, G12C); assay: KRAS^G12C engagement and degradation in homozygous, MRTX849 resistant SW1573 cells; design: MRTX849-VHL bifunctional compounds engage and degrade endogenous KRAS^G12C in NCI-H2030 cells; endogenous in cells; host or cells: NCI-H2030, NCI-H358, MIA PaCa-2, SW1573, NCI-H23
KRAS^G12C [2] = target: T1, KRAS^G12C; assay: KRAS^G12C engagement and degradation by immunoblot in NCI-H2030 cells; design: MRTX849-VHL bifunctional compounds engage and degrade endogenous KRAS^G12C in NCI-H2030 cells; endogenous in cells; host or cells: NCI-H2030, NCI-H358, MIA PaCa-2, SW1573, NCI-H23; settings: for KRAS, two-way ANOVA significance vs DMSO: FIG. 9A
Description: NCI-H2030 (CRL-5914), MIA PaCa-2 (CRL-1420), NCI-H23 (CRL-5800), NCI-H358 (CRL-5807), and HCT-116 (CCL-247) cells were obtained from ATCC, expanded immediately, and frozen down. Vials were thawed and used within 20 passages. SW1573 cells were a gift from Arvinas and were handled in the same manner. NCI-H2030, NCI-H23, and NCI-H358 were cultured in RPMI (ATCC30-2001) supplemented with 10% FBS (Biological Industries; cat. no. S1480) and 1% Penicillin-Streptomycin (ThermoFisher; cat. no. 15140122). HCT-116 cells were maintained in high glucose DMEM (ThermoFisher; cat. no. 11965084) supplemented as above. MIA PaCa-2 cells were cultured in high glucose DMEM supplemented with 10% FBS, 2.5% horse serum (ThermoFisher; cat. no. 26050-088; lot 2109875), and 1% Penicillin-Streptomycin. SW1573 cells were maintained in DMEM/F12 Nutrient Mix with GlutaMAX supplement (ThermoFisher; cat. no. 10565018) with 10% FBS and 1% Penicillin-Streptomycin added. DPBS (ThermoFisher; cat. no. 14190250) was used to wash cells and 0.25% Trypsin-EDTA (ThermoFisher; cat. no. […]) was used to detach cells for passaging. […] The VHL ligand was generously provided by Arvinas.
Between 2.5×10^5 and 6.0×10^5 cells were seeded into 6-well plates (Corning; cat. no. 353046). The next day, media was removed and cells were treated with 2.5 μM LC-2 for 1, 2, 4, 8, 12, or 24 hours. […] For 24-hour time course experiments, cells were treated at the indicated times and concurrently lysed in RIPA buffer supplemented as described previously. For longer time course experiments and time courses in which cells were treated with LC-2 or LC-2 Epimer, cells were concurrently treated with either compound, then lysed by scraping in RIPA buffer at the indicated time points.
Between 2.5×10^5 and 5.0×10^5 cells were seeded into 6-well plates. The next day cells were pretreated with DMSO, 500 μM or 1 mM VHL ligand, 1 μM epoxomicin, 1 μM […], or 100 nM […] bafilomycin A1 for 1 hour. Media was then removed and cells were treated with DMSO, 2.5 μM LC-2 plus DMSO, 2.5 μM LC-2 Epimer plus DMSO, or co-treated with 2.5 μM LC-2 and the corresponding competitor/inhibitor. H2030 cells were treated for 4 hours and H23 cells were treated for 24 hours, after which cells were lysed by scraping in RIPA buffer supplemented as described previously.
Cell lysates were clarified at 21000×g for 15 mins at 4° C. Protein levels were quantified using a 50:1 mixture of bicinchoninic acid solution (Millipore Sigma; cat. no. B9643) and 4% (w/v) copper(II) sulfate solution (Millipore Sigma; cat. no. C2284) incubated at 37° C. for 30 mins. Absorbance values at 560 nm were read on an EnVision 2101 Multilabel Reader (PerkinElmer). Proteins were separated using 26 well Criterion TGX precast 4-15% (cat. no. 5671085) or 8-16% (cat. no. 5671105) gradient midi gels. After separation, proteins were transferred to nitrocellulose or PVDF membranes at 76 V for 2 hours at 4° C. Blots were then blocked in 5% milk in tris-buffered saline with Tween-20 (TBST; 20 mM Tris, 150 mM NaCl, 0.02% Tween-20). After blocking, blots were incubated in primary antibody overnight (12-18 hours) at 4° C. or for 2 hours at room temperature with mild agitation at the manufacturer's indicated dilution in either 5% milk or 5% BSA in TBST. Blots were then washed thrice with TBST for 5 mins at room temperature. After washing, blots were incubated with 1:5,000-1:10,000 of donkey anti-rabbit (GE Life Sciences; NA934) or sheep anti-mouse (GE Life Sciences; NA931) secondary antibody diluted in 5% milk for 1 hour at room temperature with mild agitation. Blots were again washed thrice with TBST for 5 mins. Chemiluminescent signal was generated using Amersham ECL Prime Western Blotting Detection Reagant (GE Life Sciences; cat. no. RPN2232) or SuperSignal West Femto Maximum Sensitivity Substrate (ThermoFisher; cat. no. 34095). Images were obtained using a Bio-Rad ChemiDoc Imager.

KRAS^G12C [3] = target: T1, KRAS^G12C; assay: KRAS^G12C degradation in heterozygous H358 cells; design: endogenous in cells; host or cells: NCI-H358; settings: heterozygous H358 cells (FIG. 4A)
KRAS^G12C [4] = target: T1, KRAS^G12C; assay: KRAS^G12C degradation in heterozygous NCI-H23 cells; design: endogenous in cells; host or cells: NCI-H23
[5] = SW1573 cells, 72 hour time course (FIG. 8)
[6] = SW1573 cells, time course (FIG. 6B)
[7] = NCI-H2030, homozygous KRAS^G12C

SMILES	change of KRAS^G12C level over 72 hours (KRAS^G12C [1]; [5])	earliest time KRAS^G12C binding seen (KRAS^G12C [2]; NCI-H2030, 2.5 μM) [h]	KRAS engagement versus degradation (KRAS^G12C [2]; NCI-H2030, 2.5 μM, 4 hours)	induction of KRAS^G12C degradation (KRAS^G12C [3])	KRAS^G12C degradation maintained for (KRAS^G12C [1]; [5]) [h]	time to onset of KRAS^G12C degradation (KRAS^G12C [1]; [5]) [h]	maximal KRAS^G12C degradation maintained up to (KRAS^G12C [1]; [6]) [h]	time to maximal KRAS^G12C degradation (KRAS^G12C [1]; [6]) [h]	induction of KRAS^G12C degradation (KRAS^G12C [1]; homozygous, MRTX849 resistant SW1573 cells (FIG. 4C))	Dmax (KRAS^G12C [2]; NCI-H2030) [%]	KRAS, two-way ANOVA significance vs DMSO (KRAS^G12C [2]; NCI-H2030, 0.1 μM)	KRAS, two-way ANOVA significance vs DMSO (KRAS^G12C [2]; NCI-H2030, 0.25 μM)	time to maximum degradation (KRAS^G12C [2]; NCI-H2030, 2.5 μM) [h]	KRAS degradation (KRAS^G12C [2]; NCI-H2030, 2.5 μM, 4 hours) [%]	persistence of maximum degradation (KRAS^G12C [2]; NCI-H2030, 2.5 μM, 24 hour time course)	DC50 (KRAS^G12C [2]; [7]) [nM]	Dmax (KRAS^G12C [2]; [7]) [%]	lowest concentration inducing maximal degradation of endogenous KRAS^G12C (KRAS^G12C [2]; NCI-H2030 cells) [µM]	rescue of induced KRAS^G12C degradation (mechanism) (KRAS^G12C [4]; NCI-H23 cells, neddylation inhibition vs inhibition of lysosomal acidification (FIG. 5B))	induction of KRAS^G12C degradation (KRAS^G12C [4]; heterozygous NCI-H23 cells (FIG. 4D))
C=C(F)C(=O)N1CCN(c2nc(OC[C@@H]3CCCN3CCCOCCC(=O)N[C@H](C(=O)N3C[C@@H](O)C[C@H]3C(=O)NCc3ccc(-c4scnc4C)cc3)C(C)(C)C)nc3c2CCN(c2cccc4cccc(Cl)c24)C3)C[C@@H]1CC#N [LC-2 Epimer, (2S,4S)-1-((S)-2-(3-(3-((S)-2-(((7-(8-chloronaphthalen-1-yl)-4-((S)-3-(cyanomethyl)-4-(2-fluoroacryloyl)piperazin-1-yl)-5,6,7,8-tetrahydropyrido[3,4-d]pyrimidin-2-yl)oxy)methyl)pyrrolidin-1-yl)propoxy)propanamido)-3,3-dimethylbutanoyl)-4-hydroxy-N-(4-(4-methylthiazol-5-yl)benzyl)pyrrolidine-2-carboxamide]	No change is observed	1	only KRAS engagement was observed	not	–	–	–	–	–	–	–	–	–	–	–	–	–	–	–	–
C=C(F)C(=O)N1CCN(c2nc(OC[C@@H]3CCCN3CCCOCCC(=O)N[C@H](C(=O)N3C[C@H](O)C[C@H]3C(=O)NCc3ccc(-c4scnc4C)cc3)C(C)(C)C)nc3c2CCN(c2cccc4cccc(Cl)c24)C3)C[C@@H]1CC#N [LC-2, (2S,4R)-1-((S)-2-(3-(3-((S)-2-(((7-(8-chloronaphthalen-1-yl)-4-((S)-3-(cyanomethyl)-4-(2-fluoroacryloyl)piperazin-1-yl)-5,6,7,8-tetrahydropyrido[3,4-d]pyrimidin-2-yl)oxy)methyl)pyrrolidin-1-yl)propoxy)propanamido)-3,3-dimethylbutanoyl)-4-hydroxy-N-(4-(4-methylthiazol-5-yl)benzyl)pyrrolidine-2-carboxamide]	–	1	–	induces KRAS^G12C degradation	72	≤ 6	24	12	induces KRAS^G12C degradation	> 75	N.S.	N.S.	≤ 8	~65	persisted up to 24 hours	590 ± 200	>75	2.5	Inhibition of neddylation, but not inhibition of lysosomal acidification, rescues	induces KRAS^G12C degradation
